Reference: patent US9957257B2, “Amide compounds as 5-HT4 receptor agonists” (SUVEN LIFE SCIENCES LIMITED, priority 2015, dated 2018)

Columns and labels:
[1] = Rodent pharmacokinetic study; format: in vivo, Male wistar rats; settings: male, Wistar, plasma, rat; for bioavailability: 3 mg/kg oral vs 1 mg/kg intravenous
Description: Male wistar rats (225±25 grams) were used as experimental animals. Three to five animals were housed in each cage. Two days prior to dosing day, male wistar rats (225-250 grams) were anesthetized with isoflurane for surgical placement of jugular vein catheter. Animals were fasted overnight before oral dosing (p.o) and food pellets were allowed 2 hours post dosing, whereas during intravenous dosing food and water were provided as ad libitum. Three rats were dosed with test compounds (3 mg/kg) orally and intravenously (1 mg/kg).
At each time point blood was collected through jugular vein and immediately replenish with an equivalent volume of normal saline from freely moving rats. Collected blood was transferred into a labeled eppendr off containing 10 μL of heparin as anticoagulant. Typically blood samples were collected as following time points: Pre dose, 0.08 (only i.v.), 0.25, 0.5, 1, 2, 4, 6, 8, and 24 hours post dose-(n=3). Blood was centrifuged at 4000 rpm for 10 minutes. Plasma was prepared and stored frozen at −20° C. until analysis. The concentrations of the test compounds were quantified in plasma by qualified LC-MS/MS method using suitable extraction technique. The test compounds were quantified in the calibration range around 2-2000 ng/mL in plasma. Study samples were analyzed using calibration samples in the batch and quality control samples spread across the batch.
Pharmacokinetic parameters Cmax, Tmax, AUCt, T1/2 and Bioavailability were calculated by non-compartmental model using standard non-compartmental model by using WinNonLin 5.0.1 or Phoenix WinNonlin 6.2 version Software package.

[2] = Rodent brain penetration study; format: in vivo, Male Wistar rats; settings: male, Wistar, rat, 3 mg/kg, oral (gavage), read-out: Single dose Brain Penetration (Cb/Cp)
Description: Male Wistar rats (225±25 grams) were used as experimental animals. Three animals were housed in each cage. Animals were given water and food ad libitum throughout the experiment and maintained on a 12 hours light/dark cycle. Brain penetration was determined in discrete manner in rats. One day prior to dosing day, male wistar rats (225-250 grams) were acclimatized. After acclimatization the rats were grouped according to their weight. In each group, 3 animals were kept in individual cage and allowed free access to food and water. At each time point (0.50, 1 and 2 hours) n=3 animals were used. The test compounds were suitably preformulated and administered orally at (free base equivalent) 3 mg/kg. Blood samples were removed via, cardiac puncture by using isoflurane anesthesia. The animals were sacrificed to collect brain tissue. Plasma was separated and brain samples were homogenized and stored frozen at −20° C. until analysis. The concentrations of the test compounds in plasma and brain were determined using LC-MS/MS method. The test compounds were quantified in plasma and brain homogenate by qualified LC-MS/MS method using suitable extraction technique. The test compounds were quantified in the calibration range of 1-500 ng/mL in plasma and brain homogenate. Study samples were analyzed using calibration samples in the batch and quality control samples spread across the batch. Extent of brain-plasma ratio was calculated (Cb/Cp).

[3] = Object recognition task model; format: in vivo, Male Wistar rats; settings: p.o.
Description: The cognition enhancing properties of compounds of this invention were estimated by using this model.
Male Wistar rats (230-280 grams) were used as experimental animals. Four animals were housed in each cage. Animals were kept on 20% food deprivation before one day and given water ad libitum throughout the experiment and maintained on a 12 hours light/dark cycle. Also the rats were habituated to individual arenas for 1 hour in the absence of any objects.
One group of 12 rats received vehicle (1 mL/Kg) orally and another set of animals received compound of the formula (I) either orally or i.p., before one hour of the familiar (T1) and choice trial (T2).
The experiment was carried out in a 50×50×50 cm open field made up of acrylic. In the familiarization phase, (T1), the rats were placed individually in the open field for 3 minutes, in which two identical objects (plastic bottles, 12.5 cm height×5.5 cm diameter) covered in yellow masking tape alone (a1 and a2) were positioned in two adjacent corners, 10 cms from the walls. After 24 hours of the (T1) trial for long-term memory test, the same rats were placed in the same arena as they were placed in T1 trial. Choice phase (T2) rats were allowed to explore the open field for 3 minutes in presence of one familiar object (a3) and one novel object (b) (Amber color glass bottle, 12 cm high and 5 cm in diameter). Familiar objects presented similar textures, colors and sizes. During the T1 and T2 trial, explorations of each object (defined as sniffing, licking, chewing or having moving vibrissae whilst directing the nose towards the object at a distance of less than 1 cm) were recorded separately by stopwatch. Sitting on an object was not regarded as exploratory activity, however, it was rarely observed.
T1 is the total time spent exploring the familiar objects (a1+a2).
T2 is the total time spent exploring the familiar object and novel object (a3+b).
The object recognition test was performed as described by Behaviour Brain Research, 31 (1988), 47-59.

[4] = Radial arm maze; format: in vivo, rats; settings: p.o.
Description: The cognition enhancing properties of test compounds of this invention were estimated by using this model.
Radial arm maze consists of a central hub of 45 cm diameter. Each arm was of dimension 42.5×15×24 cm. The maze was elevated to a height of 1 m above the ground. The animals were placed on a restricted diet until they reached approximately 85% of their free feeding weight. During this diet restriction period animals were habituated to the novel feed (pellets). Once the rats reached approximately 85% of their free feeding weight, rats were habituated to the maze on the 1st and 2nd day. […] Animals were randomized on day 2. On the subsequent days the treatment was given as per the allotment. Each animal was introduced into the maze individually for a period of 10 minutes. The arms were baited only once and the animal had to learn the rule that repeated arm entries would not be rewarded. The trial ended once the rat had visited 16 arms or 10 minutes were over or all the pellets were eaten. The arm entries were recorded using the software. Once the trial was over the rat was removed and the maze was cleaned using soap water.

[5] = biological target: T1, recombinant human 5-HT4 receptor (Homo sapiens, UniProt Q13639); experiment: Determination of EC50 values for 5-HT4 receptor (CHO cells, pCRE-Luc reporter); format: cell-based; settings: luciferase reporter, 4 hours incubation, read-out: 5-HT4 receptor agonistic binding in-vitro EC50
T1 construct: expressed in transfected cells
Description: A stable CHO cell line expressing recombinant human 5-HT4 receptor and pCRE-Luc reporter system was used for cell-based assay. The assay offers a non-radioactive based approach to determine binding of a compound to GPCRs. In this specific assay, the level of intracellular cyclic AMP, which is modulated by activation, or inhibition of the receptor is measured. The recombinant cells harbor luciferase reporter gene under the control of cAMP response element.
The above cells were grown in 96 well clear bottom white plates in Hams F12 medium containing 10% fetal bovine serum (FBS). Prior to the addition of compounds or standard agonist, cells were serum starved overnight. Increasing concentrations of test compounds were added in OptiMEM medium to the cells. The incubation was continued at 37° C. in CO2 incubator for 4 hours. Medium was removed and cells were washed with phosphate buffered saline. The cells were lysed and luciferase activity was measured in a Luminometer. Luminescence units were plotted against the compound concentrations using Graphpad software. EC50 values of the compounds were defined as the concentration required in stimulating the luciferase activity by 50%.

[6] = biological target: T2, hERG (Homo sapiens, UniProt Q12809); experiment: Automated hERG patch clamp assay; format: cell-based; settings: hERG-HEK293 cells, whole cell patch clamp
T2 construct: expressed in transfected cells; host or cells: HEK293 (hERG-HEK293)
Description: To study the cardiac safety of test compounds using automated hERG patch clamp assay, hERG-HEK293 cells were grown to 70% confluency and were harvested using accumax. The cells were then suspended in complete media and were incubated at 37° C. and 5% CO2 for 30 minutes before using these cells for the whole cell patch clamp assay. Whole cell patch clamp recordings were conducted on Nanion's Patchliner using I-V protocol of voltage step from holding potential of −80 mV to +40 mV for 500 ms and then to test potential for 500 ms and back to holding potential of −80 mV. Pulses were elicited every 10 seconds. Each test compound concentration was incubated for 5 minutes. Data analysis was done by plotting the raw data using Igor Pro software and IC50 values were calculated. Cells with resistance >1 Gohms and tail currents of >200 pA were taken into consideration for data analysis. Quinidine was used as positive control.

T2 sequence (Q12809 whole entry): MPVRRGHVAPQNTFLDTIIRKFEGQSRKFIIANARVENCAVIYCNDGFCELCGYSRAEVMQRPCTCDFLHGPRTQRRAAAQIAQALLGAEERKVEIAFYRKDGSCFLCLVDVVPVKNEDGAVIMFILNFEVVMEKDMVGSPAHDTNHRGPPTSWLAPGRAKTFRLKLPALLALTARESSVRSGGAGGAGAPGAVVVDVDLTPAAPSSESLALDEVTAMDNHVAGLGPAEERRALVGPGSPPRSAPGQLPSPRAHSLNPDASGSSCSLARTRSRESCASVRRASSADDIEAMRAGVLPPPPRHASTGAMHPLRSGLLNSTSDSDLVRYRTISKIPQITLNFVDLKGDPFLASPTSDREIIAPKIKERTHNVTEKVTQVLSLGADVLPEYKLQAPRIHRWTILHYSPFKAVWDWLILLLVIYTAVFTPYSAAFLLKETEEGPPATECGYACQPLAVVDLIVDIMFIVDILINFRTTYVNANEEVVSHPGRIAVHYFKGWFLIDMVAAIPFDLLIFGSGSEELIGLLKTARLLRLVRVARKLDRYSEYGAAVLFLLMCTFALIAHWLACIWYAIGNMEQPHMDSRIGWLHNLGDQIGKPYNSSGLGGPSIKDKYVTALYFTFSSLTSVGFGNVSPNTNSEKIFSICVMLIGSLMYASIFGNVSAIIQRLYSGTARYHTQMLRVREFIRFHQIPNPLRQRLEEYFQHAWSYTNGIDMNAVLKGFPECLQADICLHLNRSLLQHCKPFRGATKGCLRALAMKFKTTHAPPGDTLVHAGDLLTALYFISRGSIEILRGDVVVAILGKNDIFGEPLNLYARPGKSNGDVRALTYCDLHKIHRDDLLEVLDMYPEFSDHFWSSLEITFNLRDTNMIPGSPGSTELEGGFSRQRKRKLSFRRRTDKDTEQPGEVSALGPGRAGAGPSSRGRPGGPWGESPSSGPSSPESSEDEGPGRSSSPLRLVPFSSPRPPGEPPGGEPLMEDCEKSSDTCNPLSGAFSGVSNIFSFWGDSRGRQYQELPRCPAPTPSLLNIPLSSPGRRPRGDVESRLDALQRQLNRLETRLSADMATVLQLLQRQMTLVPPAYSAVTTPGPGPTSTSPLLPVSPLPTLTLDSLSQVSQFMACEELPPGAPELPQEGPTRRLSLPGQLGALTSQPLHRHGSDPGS
T1 sequence (Q13639 whole entry): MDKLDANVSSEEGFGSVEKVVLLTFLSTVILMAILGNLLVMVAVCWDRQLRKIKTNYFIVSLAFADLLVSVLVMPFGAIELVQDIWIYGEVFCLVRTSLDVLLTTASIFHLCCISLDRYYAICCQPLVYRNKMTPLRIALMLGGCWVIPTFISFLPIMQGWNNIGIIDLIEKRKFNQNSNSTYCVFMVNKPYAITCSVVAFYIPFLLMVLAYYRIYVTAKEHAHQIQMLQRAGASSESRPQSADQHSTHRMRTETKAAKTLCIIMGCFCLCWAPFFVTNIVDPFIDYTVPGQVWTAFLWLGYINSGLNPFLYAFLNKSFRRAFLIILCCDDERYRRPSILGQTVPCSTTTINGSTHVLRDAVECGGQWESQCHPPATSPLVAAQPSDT

Row | AUC(0-t) ([1]; 1 mg/kg, intravenous (bolus)) | half-life ([1]; 1 mg/kg, intravenous (bolus)) | bioavailability [1] | AUC(0-t) ([1]; 3 mg/kg, oral (gavage)) | Cmax ([1]; 3 mg/kg, oral (gavage)) | Tmax ([1]; 3 mg/kg, oral (gavage)) | half-life ([1]; 3 mg/kg, oral (gavage)) | Kp [2] | EC50 [5] | SMILES | Exploration time mean ± S.E.M, Familiar object ([3]; 0.003 mg/kg) | Exploration time mean ± S.E.M, Novel object ([3]; 0.003 mg/kg) | Inference ([3]; 0.003 mg/kg) | Reversal of Scopolamine Induced amnesia - Effective dose range [4] | IC50 [6] | Exploration time mean ± S.E.M, Familiar object ([3]; 3 mg/kg) | Exploration time mean ± S.E.M, Novel object ([3]; 3 mg/kg) | Inference ([3]; 3 mg/kg) | Exploration time mean ± S.E.M, Familiar object ([3]; 0.3 mg/kg) | Exploration time mean ± S.E.M, Novel object ([3]; 0.3 mg/kg) | Inference ([3]; 0.3 mg/kg)
1 | 158 ± 7 ng·h/mL | 1.9 h | 68 ± 22% | 324 ± 105 ng·h/mL | 131 ± 35 ng/mL | 0.42 h | 1.6 h | 1.03 ± 0.02 |  | Nc1c(Cl)cc(C(=O)NCC2C3CN(CC4CCOCC4)CC23)c2c1CCCO2.O=C(O)C(O)C(O)C(=O)O (stereo not drawn) [Example 3, 5-Amino-6-chloro-N-{[3-(tetrahydro-2H-pyran-4-ylmethyl)-3-azabicyclo[3.1.0]hex-6-yl]methyl}chroman-8-carboxamide L(+)-tartarate] | 9.9 ± 2.06 s | 17.58 ± 2.24 s | Active | 0.03 mg/kg, p.o. |  |  |  |  |  |  | 
2 |  |  |  |  |  |  |  |  | 1.1 to 5 nM | CC(C)(O)CN1CC2C(CNC(=O)c3cc(Cl)c(N)c4c3OCCC4)C2C1 (stereo not drawn) [Example 37, 5-Amino-6-chloro-N-{[3-(2-hydroxy-2-methylpropyl)-3-azabicyclo[3.1.0]hex-6-yl]methyl}chroman-8-carboxamide L(+)-tartarate] |  |  |  |  | > 10000 nM |  |  |  |  |  | 
3 | 232 ± 14 ng·h/mL | 1.5 h | 25 ± 1% | 176 ± 10 ng·h/mL | 110 ± 25 ng/mL | 0.33 h | 1.3 h | 0.78 ± 0.06 |  | CC(C)(O)CN1CCC(F)(CNC(=O)c2cc(Cl)c(N)c3c2OCCC3)CC1.O=C(O)C(O)C(O)C(=O)O [Example 44, 5-Amino-6-chloro-N-{[4-fluoro-1-(2-hydroxy-2-methylpropyl)-4-piperidinyl]methyl}chroman-8-carboxamide L(+)-tartarate] |  |  |  |  | > 10000 nM | 5.44 ± 1.02 s | 14.64 ± 2.19 s | Active |  |  | 
4 | 147 ± 17 ng·h/mL | 0.8 h | 27 ± 20% | 250 ± 87 ng·h/mL | 182 ± 26 ng/mL | 0.33 h | 1.6 h | 2.53 ± 0.63 | 10.1 to 20 nM | Cc1cc2c(N)c(Cl)cc(C(=O)NCC3(F)CCN(CC(C)(C)O)CC3)c2o1.O=C(O)C(O)C(O)C(=O)O [Example 53, 4-Amino-5-chloro-2-methyl-N-{[4-fluoro-1-(2-hydroxy-2-methylpropyl)-4-piperidinyl]methyl}benzofuran-7-carboxamide L(+)-tartarate] |  |  |  |  | > 10000 nM |  |  |  | 8.24 ± 1.32 s | 15.98 ± 1.75 s | Active
